Reference: paper PMC4153677, “Probing the Activity Modification Space of the Cysteine Peptidase Cathepsin K with Novel Allosteric Modifiers” (PLoS ONE, 2014)
Where two headings read alike, the source gives them in different places.

Key:
[1] = molecular target: T1, Recombinant human cathepsin K (Homo sapiens, UniProt P43235); conditions: cited from earlier work; for Z-FRAMC: geometric mean of residual activities (vA): at 0.1×Km and 10×Km substrate, modifier 10×KA, previously known modifiers, data from previous work
T1 construct: made in house
T1 sequence (P43235 115-329): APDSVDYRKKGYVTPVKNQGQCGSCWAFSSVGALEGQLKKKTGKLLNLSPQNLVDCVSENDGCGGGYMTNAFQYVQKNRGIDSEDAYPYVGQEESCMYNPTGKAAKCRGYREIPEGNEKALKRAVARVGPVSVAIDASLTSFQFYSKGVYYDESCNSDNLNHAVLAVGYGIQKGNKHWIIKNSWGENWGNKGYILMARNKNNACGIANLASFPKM

[2] = molecular target: T1, Recombinant human cathepsin K; parameters: key: qualitative values of 1 and 0 were used to signify inhibition and lack thereof, respectively; qualitative values of 1 and 0 were used to signify inhibition and lack thereof, respectively; a value of -1 was used to describe the concentration-dependent roles of glycosaminoglycans; conditions: activity modification matrix; previously known modifiers, data from previous work; cited from earlier work
[3] = molecular target: T1, Recombinant human cathepsin K; test: Azocasein degradation assays; format: biochemical; conditions: for azocasein: fraction of residual enzyme activity: value of 1 equals the activity of unmodified enzyme, activity modification matrix
Excerpt: Figure 4 Effect of modifiers on the degradation of macromolecular substrates. (A) Effect of increasing concentrations of compounds 1 and 2 on the degradation of calf skin collagen. Molecular mass standards are given in kDa and positions of α, β and γ chains of intact collagen are marked by arrows. (B) Effect of modifiers on azocasein degradation. (C) Effect of glycosaminoglycans and clusterin on azocasein degradation. Two different concentrations of each glycosaminoglycan were used in the experiments (10 µg/ml and 200 µg/ml). Error bars in panels B and C represent the SEM of three experiments. All experiments were performed in 100 mM sodium acetate buffer pH 5.50 containing 1 mM EDTA and 5 mM DTT, as described in detail in the Materials and Methods section. Abbreviations: CPD – compound, CS – chondroitin sulfate, DS – dermatan sulfate, HP – heparin.
Azocasein (Sigma-Aldrich, USA) was dissolved in 100 mM sodium acetate buffer pH 5.50 containing 1 mM EDTA and 5 mM DTT at a concentration of 3 mg/ml. Samples were incubated with 0.1 µM cathepsin K for 30 min at 37°C in the presence of each compound. […] Reactions were stopped by addition of trichloroacetic acid (final concentration 5% v/v), centrifuged, clear supernatants mixed with 0.5 M NaOH and the concentrations of solubilized peptides determined by measuring the absorbance at 440 nm. All experiments were performed in triplicates and appropriate blanks were run to take into account the absorption of azocasein and compounds alone. IC 50 values were determined as described previously.

[4] = molecular target: T1, Recombinant human cathepsin K; conditions: cited from earlier work; for stability: ln(sf), sf = ratio of half-lives in the presence and absence of modifier: 37 °C and pH 7.4, data from previous work
[5] = molecular target: T1, Recombinant human cathepsin K; test: Kinetic measurements, hydrolysis of the fluorogenic substrate Z-FR↓AMC (general modifier mechanism); format: biochemical; parameters: key to α (coefficient, effect of modifier on the affinity for the substrate) / β (coefficient, effect of modifier on the catalytic rate): dimensionless coefficients multiplying KS (α) and kcat (β)
Procedure: All modifiers were tested for their effect on the hydrolysis of the low molecular mass synthetic substrate Z-FR↓AMC. Since all progress curves were linear from the beginning of the reaction, initial velocities were calculated from the slopes by linear regression. […] The basic mechanism considered for the analysis of the interactions was the general modifier mechanism shown in Figure 2, in which the effect of modifier is determined by the values of the coefficients α and β that multiply the kinetic parameters K S, K A (α) and k cat (β). In the thermodynamic box embodied in Figure 2, the reciprocal of the coefficient α represents the allosteric coupling constant that characterizes energy linkage between the modifier and the substrate, while a […] represents the effect exerted by the modifier on catalysis. The specific velocity plot was used for the primary screening of the kinetic behavior of the modifiers (Equation 2), as it allows an immediate judgment of the type of interaction and to gather preliminary estimates of the coefficients α and β, as well as of the dissociation constant of the modifier. Refinement was then performed by fitting the rate Equation 1 to data.
Figure 3 Kinetic mechanisms of the identified modifiers. All compounds were characterized by a combination of specific velocity plots (upper panels) and titration curves recorded at fixed substrate concentrations (lower panels). All experiments were performed at 25±1°C in 100 mM sodium acetate buffer pH 5.50 containing 1 mM EDTA and 2.5 mM DTT using the fluorogenic substrate Z-FR↓AMC and at a final enzyme concentration of 0.5 nM.
All kinetic measurements were performed in 100 mM sodium acetate buffer pH 5.50 containing 1 mM EDTA and 2.5 mM dithiothreitol (DTT) in single-use acrylic cuvettes (1×1 cm) thermostatted at 25±1°C with magnetic stirring. The hydrolysis of Z-FR↓AMC was followed fluorometrically at λex 383 nm and λem 455 nm. All tested modifiers were analyzed spectroscopically to determine their absorption properties under the conditions used in the assays. When necessary, appropriate corrections were made to the calculated reaction rates to take into account the inner filter effect.
The effects of the modifiers on enzymatic activity were analyzed with the general modifier mechanism which describes the interaction between enzyme (E), substrate (S) and modifier (A), as shown in Figure 2. Assuming that binding of A to E and ES is at quasi-equilibrium and that steady-state conditions are established in the fluxes around ES and ESA (i.e. the catalytic steps), the reaction rate for the mechanism in Figure 2 is defined by Equation 1: [drawing 2] (1) where v 0 is the reaction rate in the absence of modifier, K A is the equilibrium dissociation constant of the EA complex, α and β are dimensionless coefficients and σ = [S]/K m, approximated to [S]/K s. To determine the mechanism of interaction, plot the kinetic data and calculate preliminary values of the interaction parameters, the specific velocity plot was used. For this purpose, Equation 1 is rewritten as:
The plot of v 0/v A versus σ/(1+σ) produces straight lines with intersection points at v 0/v A = 1, regardless of the interaction mechanism. The parameters α, β and K A are determined by replotting the extrapolated values of the straight lines at σ/(1+σ) = 0 (a) and σ/(1+σ) = 1 (b) versus 1/[A] in the form: [drawing 4] (3) [drawing 5] (4)

[6] = molecular target: T1, Recombinant human cathepsin K; test: Thermal stability of cathepsin K at pH 7.4 in the presence of modifiers; format: biochemical; conditions: 37 °C and pH 7.4
Procedure: Cathepsin K was incubated at 37°C in 50 mM Hepes buffer pH 7.40 containing 1 mM EDTA and 5 mM DTT in the presence or absence of each modifier. The final enzyme concentration was 0.2 µM and final compounds concentrations were 2 mM, except compound 2, which was used at a concentration of 1 mM. All experiments were performed in Eppendorf Protein LoBind Tubes to minimize the adsorption of proteins on tube walls. Aliquots were withdrawn from the reaction mixtures at regular time intervals and their residual activity measured using the substrate Z-FR↓AMC (5 µM final concentration). Inactivation curves had exponential profiles that were fitted with the mathematical model for one-phase exponential decay to determine the half-life of the enzyme in each reaction mixture.

[7] = molecular target: T1, Recombinant human cathepsin K; test: Collagenolytic assays (calf skin collagen, SDS-PAGE); format: biochemical; parameters: key to collagen: qualitative value: qualitative values of 1 and 0 were used to signify inhibition and lack thereof, respectively; qualitative values of 1 and 0 were used to signify inhibition and lack thereof, respectively; a value of -1 was used to describe the concentration-dependent roles of glycosaminoglycans
Procedure: The use of synthetic substrates is practical for the determination of the mechanisms of modification. […] Therefore, all modifiers were also tested with two macromolecular substrates, calf skin collagen and azocasein. The collagenolytic activity was tested quantitatively by following the fragmentation of the characteristic type I collagen pattern into smaller products on SDS-PAGE after incubation of the samples with cathepsin K in the presence and absence of modifiers.
Soluble calf skin collagen (Worthington Biochemical Corporation, USA) was diluted in 100 mM sodium acetate buffer pH 5.50 containing 1 mM EDTA and 5 mM DTT to a final concentration of 0.5 mg/ml. Experiments were started by addition of cathepsin K (final enzyme concentration 0.6 µM) to the reaction mixture containing collagen and increasing concentrations of modifier. All assays were performed at 28°C with shaking on an Eppendorf Thermomixer Comfort. Samples were incubated for 2 hours and the reactions then blocked by addition of E-64 to a final concentration of 1 µM. 10 µg of digested collagen were analyzed by SDS-PAGE on 8% polyacrylamide gels and protein bands visualized by Coomassie Brilliant Blue R-250 staining.

[8] = substrate Z-FR↓AMC, pH 5.50, 25°C, 0.5 nM enzyme

Compound | Z-FRAMC: geometric mean of residual activities (vA) [1] | collagen: qualitative value [2] | azocasein: fraction of residual enzyme activity [3] | stability: ln(sf), sf = ratio of half-lives in the presence and absence of modifier [4] | Effect on stability of cathepsin K at physiological plasma pH 7.4 [4] | further results
heparin | 1.55 | -1 | 0.31 | 1.69 | increase the stability | –
NCC1CCN(CCc2ccccc2)CC1 [Compound 6, 1-[1-(2-Phenylethyl)-4-piperidinyl]-methanamine] | – | – | 0.77 | – | – | Z-FRAMC: geometric mean of residual activities (vA) ([5]; at 0.1×Km and 10×Km substrate, modifier 10×KA, calculated with Equation 1 from α and β of Table 3, unmodified enzyme = 1.00): 0.65; Kinetic mechanism of modification ([5]; substrate Z-FR↓AMC, from combinations of α and β): hyperbolic competitive inhibitor; α (coefficient, effect of modifier on the affinity for the substrate) [5, 8]: 3.0±0.2; β (coefficient, effect of modifier on the catalytic rate) [5, 8]: 1; Kd ([5]; substrate Z-FR↓AMC, pH 5.50, 25°C, 0.5 nM enzyme, read-out: K A (equilibrium dissociation constant of the EA complex)): 270 ± 50 µM; IC 50 relative to K A ([3]; azocasein IC50 versus K A with Z-FR↓AMC): about 4 fold; IC50 ([3]; azocasein degradation): 1100 ± 240 µM; remaining activity ([3]; pH 5.5, substrate azocasein 3 mg/ml, 0.1 µM cathepsin K, 30 min 37°C, pH 5.50, compounds up to 2 mM (compound 2: 1 mM), read-out: Residual activity): 77 ± 8%; stability: ln(sf), sf = ratio of half-lives in the presence and absence of modifier [6]: 0.18; collagen: qualitative value ([7]; activity modification matrix): 0; IC50 ([7]; substrate calf skin collagen 0.5 mg/ml, 0.6 µM cathepsin K, 2 hours 28°C, pH 5.50, estimated): n.i.
dermatan sulfate [reference compound] | 3.18 | -1 | 0.32 | -0.15 | – | –
chondroitin sulfate [reference compound] | 2.40 | -1 | 0.90 | -0.24 | – | Effect on azocasein degradation ([3]; lowest concentration, 10 µg/ml): ineffective
clusterin: extracellular chaperone, stabilizer and liberator of cathepsin K | 1.00 | 0 | 0.95 | 0.79 | increase the stability | Effect on the hydrolysis of Z-FR↓AMC [1]: no effect on enzymatic activity; Effect on the hydrolysis of Z-FR↓AMC ([1]; listed as CLU): no modification; Effect on azocasein degradation ([3]; glycosaminoglycans at 10 µg/ml and 200 µg/ml, clusterin): marginal inhibitory effect
